Reference: paper PMC12723682, “Ligand-Directed Self-Assembling Chimeras for Targeted Protein O‑GlcNAcylation” (ACS Chemical Biology, 2025)

Legend:
[1] = molecular target: T1, O-GlcNAc transferase (OGT) (Homo sapiens, UniProt O15294); assay: SPR, confirmed by MST; also in-gel covalent labelling of purified OGT, competed by OSMI-4; format: binding
T1 sequence (O15294 2-1046): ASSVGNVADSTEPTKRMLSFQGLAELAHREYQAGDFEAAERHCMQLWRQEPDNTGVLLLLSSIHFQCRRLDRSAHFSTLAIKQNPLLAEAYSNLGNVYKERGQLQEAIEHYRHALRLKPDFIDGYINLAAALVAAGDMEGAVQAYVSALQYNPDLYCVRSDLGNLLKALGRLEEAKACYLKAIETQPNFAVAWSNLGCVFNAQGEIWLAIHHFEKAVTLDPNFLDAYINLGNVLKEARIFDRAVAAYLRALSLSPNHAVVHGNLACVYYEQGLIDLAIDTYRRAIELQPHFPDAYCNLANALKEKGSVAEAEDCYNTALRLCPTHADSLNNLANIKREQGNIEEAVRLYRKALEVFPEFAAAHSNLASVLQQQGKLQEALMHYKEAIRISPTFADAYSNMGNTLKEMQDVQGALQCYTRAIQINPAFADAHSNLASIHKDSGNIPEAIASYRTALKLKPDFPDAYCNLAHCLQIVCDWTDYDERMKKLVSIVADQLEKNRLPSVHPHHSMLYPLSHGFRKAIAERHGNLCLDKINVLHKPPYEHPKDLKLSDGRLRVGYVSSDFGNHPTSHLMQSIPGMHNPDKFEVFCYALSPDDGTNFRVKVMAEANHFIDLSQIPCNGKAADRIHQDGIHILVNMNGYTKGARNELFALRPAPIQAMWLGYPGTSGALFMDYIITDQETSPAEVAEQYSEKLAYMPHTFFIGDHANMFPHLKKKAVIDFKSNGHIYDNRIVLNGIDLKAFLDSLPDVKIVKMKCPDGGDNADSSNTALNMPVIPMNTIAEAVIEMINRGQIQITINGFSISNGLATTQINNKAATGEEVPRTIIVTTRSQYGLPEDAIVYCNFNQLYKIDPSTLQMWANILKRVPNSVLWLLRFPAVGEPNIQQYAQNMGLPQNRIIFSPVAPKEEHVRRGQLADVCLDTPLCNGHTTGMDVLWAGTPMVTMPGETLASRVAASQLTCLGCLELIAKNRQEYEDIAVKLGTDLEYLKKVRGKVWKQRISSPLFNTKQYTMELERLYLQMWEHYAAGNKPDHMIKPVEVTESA

[2] = molecular target: T1, O-GlcNAc transferase (OGT); assay: SPR steady-state affinity on immobilized OGT; also in-gel covalent labelling of purified OGT, competed by OSMI-4; format: binding

Row | SMILES | Kd [1] | Kd [2]
1 | C#CCCCCC(=O)N(CC#N)S(=O)(=O)c1ccc2[nH]c(=O)ccc2c1 [8a] | 28.3 µM | 
2 | C#CCCCCC(=O)N(CC#N)S(=O)(=O)c1cc2ccc(=O)[nH]c2cc1Cl [7a] |  | 2 µM
